The values below come from patent US7553864B2, “Compounds for the treatment of inflammatory disorders and microbial diseases” (Schering Corporation, priority 2005, dated 2009).

The test system of this assay is LpxC enzyme. The assay can be described thus: LpxC enzyme assay (RapidFire high-throughput mass spectrometry). The assay is classed as biochemical. The procedure:
The standard LpxC assay consists of 0.2 nM LpxC enzyme, 1.0 μM UDP-3-O—(R-3-hydroxymyristoyl)-N-acetylglucosamine, and test compound, in assay buffer and 2% DMSO. Assay buffer is comprised of 25 mM HEPES, pH 7.3, 150 mM NaCl, 2.0 mM DTT, and 0.01% BSA. The enzyme reaction is carried out in a 96-well assay plate, in a final volume of 102 μL. Solutions of test compounds are prepared in 100% DMSO. Reaction additions, in order, are (1) 2.0 μL compound solution, (2) 80 μL of assay buffer, (3) 10 μL of 10 μM UDP-3-O—(R-3-hydroxymyristoyl)-N-acetylglucosamine (in assay buffer) and, (4) 10 μL of LpxC enzyme (20 nM in assay buffer) to initiate the reaction. In positive control reactions, addition (1) has 2.0 μL of 100% DMSO (without compound); these reactions are used as the total signal (TSB) value. Reactions are incubated at room temperature for 60 minutes when 10 μL of 1 N HCl is added to stop the reaction. The plate is shaken by hand for 10 seconds to ensure complete quenching. Assay plates are sealed with foil tape, and stored at −80° C. for 24-48 hr prior to analysis.
The concentrations of substrate and product in the reaction mixtures are determined with BioTrove's proprietary RapidFire™ high-throughput mass spectrometry (HTMS). Assay mixtures are partially purified with reverse phase chromatography, where they are washed with water containing 5 mM ammonium formate and eluted onto the mass spectrometer in 80% acetonitrile, 20% water, and 5 mM ammonium formate. The mass spectrometry peak areas of the substrate and product are measured to determine the concentration of these analytes. The assay signal is the percentage of substrate that is converted to product. Percent inhibition, % I, in test samples is determined from the following equation: […]

[1] abbreviates: concentration 0.10 (unit not given).
Where [2] appears, read: concentration 0.20 (unit not given).
The mark [3] stands for this setting: concentration 0.39 (unit not given).
[4] abbreviates: concentration 0.78 (unit not given).
The mark [5] stands for this setting: concentration 1.56 (unit not given).
Where [6] appears, read: concentration 3.13 (unit not given).
Where [7] appears, read: concentration 6.25 (unit not given).
Where [8] appears, read: concentration 12.50 (unit not given).
Setting [9] is: concentration 25 (unit not given).
Where [10] appears, read: concentration 50 (unit not given).

`CN(C)C(=O)[C@H](O)[C@@H](O)C(=O)Nc1ccc(-c2ccccc2)cc1` [Compound 45]: the “LpxC enzyme assay rating (% inhibition at indicated concentrations)” value under setting [1] is recorded as “C (less than 10% inhibition)”; the “LpxC enzyme assay rating (% inhibition at indicated concentrations)” value under setting [2] was “C (less than 10% inhibition)”; the “LpxC enzyme assay rating (% inhibition at indicated concentrations)” value under setting [3] is on record as “C (less than 10% inhibition)”; the “LpxC enzyme assay rating (% inhibition at indicated concentrations)” value under setting [4] is recorded as “C (less than 10% inhibition)”; the “LpxC enzyme assay rating (% inhibition at indicated concentrations)” value under setting [5] was “C (less than 10% inhibition)”; the “LpxC enzyme assay rating (% inhibition at indicated concentrations)” value under setting [6] was “C (less than 10% inhibition)”. The “LpxC enzyme assay rating (% inhibition at indicated concentrations)” value by setting is: under setting [7], “C (less than 10% inhibition)”; under setting [8], “C (less than 10% inhibition)”; under setting [9], “C (less than 10% inhibition)”; under setting [10], “C (less than 10% inhibition)”.

In the case of `CNC(=O)[C@H](O)[C@@H](O)C(=O)Nc1ccc(-c2cc[nH]n2)cc1` [Compound 42], the “LpxC enzyme assay rating (% inhibition at indicated concentrations)” value runs as follows: under setting [1], “C (less than 10% inhibition)”; under setting [2], “C (less than 10% inhibition)”; under setting [3], “B (10-30% inhibition)”; under setting [4], “B (10-30% inhibition)”; under setting [5], “B (10-30% inhibition)”; under setting [6], “C (less than 10% inhibition)”. Also, the “LpxC enzyme assay rating (% inhibition at indicated concentrations)” value by setting is: under setting [7], “B (10-30% inhibition)”; under setting [8], “B (10-30% inhibition)”; under setting [9], “B (10-30% inhibition)”; under setting [10], “C (less than 10% inhibition)”.

Turning to `O=C(NCCCCl)[C@H](O)[C@@H](O)C(=O)Nc1ccc(-n2cccn2)cc1` [Compound 62], the “LpxC enzyme assay rating (% inhibition at indicated concentrations)” value is “C (less than 10% inhibition)” under setting [1]; “C (less than 10% inhibition)” under setting [2]; “C (less than 10% inhibition)” under setting [3]; “C (less than 10% inhibition)” under setting [4]; “B (10-30% inhibition)” under setting [5]; “C (less than 10% inhibition)” under setting [6]. The “LpxC enzyme assay rating (% inhibition at indicated concentrations)” value under setting [7] is listed as “B (10-30% inhibition)”, the “LpxC enzyme assay rating (% inhibition at indicated concentrations)” value under setting [8] is recorded as “B (10-30% inhibition)”, the “LpxC enzyme assay rating (% inhibition at indicated concentrations)” value under setting [9] is reported as “B (10-30% inhibition)” and the “LpxC enzyme assay rating (% inhibition at indicated concentrations)” value under setting [10] is given as “C (less than 10% inhibition)”.

As for `CN(C)C(=O)[C@H](O)[C@@H](O)C(=O)Nc1ccc(-c2ccc(C(F)(F)F)cc2)cc1` [Compound 46], the “LpxC enzyme assay rating (% inhibition at indicated concentrations)” value under setting [1] is on record as “C (less than 10% inhibition)”; the “LpxC enzyme assay rating (% inhibition at indicated concentrations)” value under setting [2] is “C (less than 10% inhibition)”; the “LpxC enzyme assay rating (% inhibition at indicated concentrations)” value under setting [3] is listed as “C (less than 10% inhibition)”; the “LpxC enzyme assay rating (% inhibition at indicated concentrations)” value under setting [4] is on record as “C (less than 10% inhibition)”; the “LpxC enzyme assay rating (% inhibition at indicated concentrations)” value under setting [5] is “C (less than 10% inhibition)”; the “LpxC enzyme assay rating (% inhibition at indicated concentrations)” value under setting [6] was “C (less than 10% inhibition)”. The “LpxC enzyme assay rating (% inhibition at indicated concentrations)” value by setting is: under setting [7], “C (less than 10% inhibition)”; under setting [8], “B (10-30% inhibition)”; under setting [9], “B (10-30% inhibition)”; under setting [10], “A (greater than 30% inhibition)”.

As for `O=C([C@H](O)[C@@H](O)C(=O)N1CCC(c2ccc3ccccc3c2)CC1)N1CCCC1` [Compound 70], the “LpxC enzyme assay rating (% inhibition at indicated concentrations)” value is listed as “C (less than 10% inhibition)” under setting [1]; “C (less than 10% inhibition)” under setting [2]; “C (less than 10% inhibition)” under setting [3]; “B (10-30% inhibition)” under setting [4]; “C (less than 10% inhibition)” under setting [5]; “C (less than 10% inhibition)” under setting [6]. Also, the “LpxC enzyme assay rating (% inhibition at indicated concentrations)” value is, setting by setting: under setting [7], “C (less than 10% inhibition)”; under setting [8], “C (less than 10% inhibition)”; under setting [9], “B (10-30% inhibition)”; under setting [10], “C (less than 10% inhibition)”.

On to `CN(C)CCCOc1ccc(NC(=O)[C@H](O)[C@@H](O)C(=O)N2CCCC2)cc1` [Compound 74], for which the “LpxC enzyme assay rating (% inhibition at indicated concentrations)” value is, setting by setting: under setting [1], “B (10-30% inhibition)”; under setting [2], “C (less than 10% inhibition)”; under setting [3], “C (less than 10% inhibition)”; under setting [4], “C (less than 10% inhibition)”; under setting [5], “B (10-30% inhibition)”; under setting [6], “B (10-30% inhibition)”. For the same molecule, the “LpxC enzyme assay rating (% inhibition at indicated concentrations)” value is listed as “C (less than 10% inhibition)” under setting [7], “C (less than 10% inhibition)” under setting [8], “C (less than 10% inhibition)” under setting [9] and “C (less than 10% inhibition)” under setting [10].

For `CNC(=O)[C@H](O)[C@@H](O)C(=O)N1CCN(c2ccc(-c3ncccn3)cc2)CC1` [Compound 37], the “LpxC enzyme assay rating (% inhibition at indicated concentrations)” value is listed as “C (less than 10% inhibition)” under setting [1]; “C (less than 10% inhibition)” under setting [2]; “C (less than 10% inhibition)” under setting [3]; “C (less than 10% inhibition)” under setting [4]; “C (less than 10% inhibition)” under setting [5]; “C (less than 10% inhibition)” under setting [6]. The “LpxC enzyme assay rating (% inhibition at indicated concentrations)” value under setting [7] was “B (10-30% inhibition)”, the “LpxC enzyme assay rating (% inhibition at indicated concentrations)” value under setting [8] was “C (less than 10% inhibition)”, the “LpxC enzyme assay rating (% inhibition at indicated concentrations)” value under setting [9] was “B (10-30% inhibition)” and the “LpxC enzyme assay rating (% inhibition at indicated concentrations)” value under setting [10] was “C (less than 10% inhibition)”.

Turning to `CN(C)C(=O)[C@H](O)[C@@H](O)C(=O)Nc1ccc(Oc2ccccc2)cc1` [Compound 53], the “LpxC enzyme assay rating (% inhibition at indicated concentrations)” value runs as follows: under setting [1], “C (less than 10% inhibition)”; under setting [2], “C (less than 10% inhibition)”; under setting [3], “C (less than 10% inhibition)”; under setting [4], “B (10-30% inhibition)”; under setting [5], “C (less than 10% inhibition)”; under setting [6], “C (less than 10% inhibition)”. Further, the “LpxC enzyme assay rating (% inhibition at indicated concentrations)” value under setting [7] is “C (less than 10% inhibition)”, the “LpxC enzyme assay rating (% inhibition at indicated concentrations)” value under setting [8] is recorded as “C (less than 10% inhibition)”, the “LpxC enzyme assay rating (% inhibition at indicated concentrations)” value under setting [9] was “C (less than 10% inhibition)” and the “LpxC enzyme assay rating (% inhibition at indicated concentrations)” value under setting [10] is “C (less than 10% inhibition)”.

Turning to `CN(C)CCOc1ccc(NC(=O)[C@H](O)[C@@H](O)C(=O)N(C)C)cc1` [Compound 56], the “LpxC enzyme assay rating (% inhibition at indicated concentrations)” value is, setting by setting: under setting [1], “C (less than 10% inhibition)”; under setting [2], “B (10-30% inhibition)”; under setting [3], “C (less than 10% inhibition)”; under setting [4], “C (less than 10% inhibition)”; under setting [5], “C (less than 10% inhibition)”; under setting [6], “C (less than 10% inhibition)”. Also, the “LpxC enzyme assay rating (% inhibition at indicated concentrations)” value is “B (10-30% inhibition)” under setting [7], “C (less than 10% inhibition)” under setting [8], “C (less than 10% inhibition)” under setting [9] and “C (less than 10% inhibition)” under setting [10].
